This note sets out measurements from PubChem BioAssay (NCI).

What all share (assay): NCI tumour cell line growth inhibition, 48 h
The subject of assay [1] is ACHN renal.
For assay [2], the system named is SW-620 colon.
The subject of assay [3] is CAKI-1 renal.
Assay [4] concerns SF-539 CNS.
Assay [5] concerns BT-549 breast.
For assay [6], the system named is HCT-116 colon.
For assay [7], the system named is SF-295 CNS.
Assay [8] concerns COLO 205 colon.
Assay [9] has as its system NCI-H460 lung.
For assay [10], the system named is NCI-H522 lung.

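Five compound concentrations were applied to cells in 96-well plates for 48 hours; endpoints were derived by simple linear interpolation of the resulting dose-response curve. Here, GI50 denotes the concentration required for 50% inhibition of growth. Definition used: TGI = concentration required for complete inhibition of growth.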

With `CC(C)[C@@H](C(=O)O[C@@H]1/C=C/C(=O)O[C@@H](C)CCC/C=C/[C@@H]2C[C@H](O)C[C@H]21)N(C)C`, the GI50 in [1] is 38.4 µM; in [2] it was 7.03 µM; in [3], 11.9 µM; in assay [4], 22.5 µM; in [5], 9.41 µM; in [6], 22.3 µM. Further, the GI50 was 6 µM in [7], 8.95 µM in [8], 24.7 µM in assay [9] and 26.6 µM in [10]. Further, the TGI in [1] is more than 100 µM; in assay [2], 20.7 µM; in assay [3], 42.8 µM; in [4] it was 67.4 µM; in assay [5], 32 µM; in [6], 64.4 µM. For the same compound, the TGI was 24.9 µM in assay [7], 25.5 µM in assay [8], more than 76.3 µM in assay [9] and more than 75 µM in assay [10].

In the case of `CC(NNC(=S)N1CCN(c2ccccn2)CC1)c1nccc2ccccc12` (centres undefined), the TGI was determined as 10.9 µM in assay [1]; 20.1 µM in [2]; 10.3 µM in assay [3]; 6.43 µM in [4]; 22.6 µM in assay [5]; 9.29 µM in assay [6]. Besides, the TGI turned out to be 11.9 µM in assay [7], 5.93 µM in assay [8], 11.3 µM in assay [9] and 14 µM in [10].

`Cc1[nH]nc(C(F)(F)F)c1Cc1sc2c(c1C(=O)N1C[C@](C)(O)CO1)c(=O)n(C)c(=O)n2C(C)C`: the GI50 in [1], in assay [2], in assay [3], in assay [4], in assay [5] and in assay [6] was more than 100 µM throughout. For the same compound, the GI50 in [7] is more than 100 µM; in assay [8], more than 100 µM; in assay [9], more than 100 µM; in [10], 3.26 µM. Moreover, the TGI in assay [1], in assay [2], in [3], in assay [4], in assay [5] and in assay [6] was more than 100 µM each time. Besides, the TGI in assay [7], in assay [8], in assay [9] and in [10] was more than 100 µM throughout.

In the case of `CC1(C)OCC2OC(n3cnc4c(N)nc(Cl)nc43)C(OS(C)(=O)=O)C2O1` (centres undefined), the TGI in assay [1], in assay [2], in [3], in assay [4], in assay [5] and in assay [6] was more than 100 µM throughout. Besides, the TGI in assay [7], in [8], in assay [9] and in [10] was more than 100 µM in each case.

For `Cc1nnc(N/N=C/c2ccc([N+](=O)[O-])o2)[nH]c1=O`, the GI50 in assay [1] was 0.603 µM; in assay [2], 1.24 µM; in assay [3], 1.79 µM; in assay [4], 0.447 µM; in assay [5] it was 0.566 µM; in assay [6] it was 0.57 µM. In addition, the GI50 was 1.93 µM in assay [7], 2.53 µM in [8], 3.19 µM in [9] and 0.914 µM in [10]. Further, the TGI is 4.58 µM in assay [1]; more than 100 µM in assay [2]; more than 100 µM in [3]; more than 51.6 µM in assay [4]; more than 21.5 µM in assay [5]; more than 100 µM in [6]. Further, the TGI in assay [7] was more than 100 µM; in assay [8], more than 100 µM; in assay [9], 14.6 µM; in assay [10], 5.58 µM.

Regarding `CCC(=O)OCOc1ccc(/C=C2\CCC(CN(C)C)C2=O)cc1` (centres undefined), the TGI was 20.4 µM in assay [1]; 7.38 µM in assay [2]; 11.5 µM in assay [3]; 17.3 µM in assay [4]; 13.6 µM in assay [5]; 18.2 µM in [6]. In addition, the TGI worked out at 20.5 µM in assay [7], 15.8 µM in assay [8], 32.7 µM in assay [9] and 4.41 µM in assay [10].

Consider `CC1=C(CCC(C)CO)O[C@H]2C[C@H]3[C@@H]4CC[C@H]5C[C@@H](O)CC[C@]5(C)[C@H]4CC(=O)[C@]3(C)[C@@H]12` (some centres undefined), for which the TGI is more than 69.7 µM in [1]; more than 100 µM in [2]; 86.3 µM in assay [3]; 72.7 µM in assay [4]; 58.4 µM in assay [5]; 47.7 µM in assay [6]. The TGI is more than 49.9 µM in assay [7], 27.7 µM in assay [8], 21.8 µM in assay [9] and 30.3 µM in assay [10].

For the compound `COC(=O)C1=C(C)NC(C)=C(C(=O)OC)C1c1cccc(/[N+]([O-])=C/c2ccccc2)c1`, the TGI was 31.6 µM in assay [1]; 38 µM in assay [2]; 32.3 µM in assay [3]; more than 100 µM in assay [4]; 30.3 µM in assay [5]; 30.4 µM in [6]. The TGI was more than 100 µM in assay [7], 30.5 µM in assay [8], more than 100 µM in [9] and 30.2 µM in [10].

In the case of `CCC(=O)NC1=C(Cl)C(=O)C(NC(=O)CC)=C(Cl)C1=O`, the GI50 in assay [1] is 5.6 µM; in assay [2], 5.77 µM; in [3], 5.98 µM; in [4], more than 44.4 µM; in assay [5], 16 µM; in assay [6], 6.89 µM. Also, the GI50 was more than 39.2 µM in assay [7], 5.97 µM in assay [8], more than 45.7 µM in assay [9] and 5.86 µM in [10]. For the same compound, the TGI in assay [1] was 10.9 µM; in assay [2] it was 11 µM; in [3], 10.8 µM; in assay [4], more than 58.2 µM; in [5], 29.7 µM; in [6] it was 17.3 µM. Also, the TGI is more than 53.8 µM in [7], 10.8 µM in assay [8], more than 63.3 µM in [9] and 10.7 µM in assay [10].

`O=C1/C=C/[C@@H](O)[C@@H]2C[C@@H](O)C[C@H]2/C=C/CCC[C@H](CCO)O1`: the GI50 in assay [1] was 0.343 µM; in [2], 0.216 µM; in assay [3], 0.324 µM; in assay [4] it was 0.469 µM; in assay [5] it was 0.33 µM; in [6], 0.215 µM. The GI50 in assay [7] is 0.29 µM; in assay [8], 0.104 µM; in assay [9] it was 0.382 µM; in assay [10], 0.211 µM. Besides, the TGI is more than 100 µM in assay [1]; 0.646 µM in [2]; 3.43 µM in [3]; more than 100 µM in assay [4]; more than 31.5 µM in assay [5]; 0.454 µM in assay [6]. In addition, the TGI in [7] is more than 100 µM; in assay [8], 0.241 µM; in assay [9], more than 100 µM; in assay [10], 0.604 µM.

For `CN1CCN(Cc2ccc(NC(=O)c3cncc(C#Cc4ccc(N)nc4)c3)cc2C(F)(F)F)CC1`, the GI50 in assay [1] was 0.461 µM; in [2], 0.893 µM; in assay [3] it was 0.312 µM; in assay [4], 0.501 µM; in assay [5], 1.62 µM; in [6] it was 0.596 µM. The GI50 in [7] was 1.23 µM; in [8] it was 0.865 µM; in assay [9] it was 0.988 µM; in assay [10], 0.774 µM. For the same compound, the TGI in [1] was determined as 4.4 µM; in assay [2], 3.37 µM; in [3], 2.09 µM; in assay [4], 1.66 µM; in [5], 6.43 µM; in assay [6], 3.9 µM. The TGI in [7] was 4.79 µM; in assay [8], 3.95 µM; in [9] it was 5.86 µM; in [10], 6.2 µM.

Turning to `CCOC(=O)C1=C(Nc2ccc(OC)cc2)C(N)=NC1=N`, the GI50 in [1] was 8.84 µM; in assay [2], 3.95 µM; in [3], 5.84 µM; in assay [4], 2.15 µM; in assay [5], 5.37 µM; in assay [6], 2.45 µM. Also, the GI50 is 2.71 µM in assay [7], 3.07 µM in assay [8], 3.73 µM in assay [9] and 3.12 µM in assay [10]. The TGI is more than 100 µM in [1]; more than 100 µM in assay [2]; more than 100 µM in [3]; 6.27 µM in assay [4]; more than 100 µM in assay [5]; more than 100 µM in [6]. In addition, the TGI in assay [7] was 8.32 µM; in assay [8] it was 10.1 µM; in [9], more than 100 µM; in [10], more than 100 µM.

Consider `COc1cccc(N2CC(O)=C(c3nc4ccccc4s3)C2=N)c1`, for which the GI50 in [1] is 0.307 µM; in assay [2], 0.341 µM; in assay [3] it was 0.11 µM; in assay [4] it was 0.451 µM; in assay [5], 0.726 µM; in assay [6] it was 0.35 µM. The GI50 in [7] is 0.0744 µM; in assay [8], 0.472 µM; in assay [9] it was 0.24 µM; in assay [10], 0.0588 µM. Moreover, the TGI in assay [1] was more than 60.2 µM; in assay [2] it was more than 100 µM; in [3], more than 100 µM; in assay [4], 26.6 µM; in assay [5], more than 100 µM; in assay [6] it was more than 47.2 µM. Moreover, the results for the TGI in assay [7], in [8] and in assay [9] were 6.09 µM, more than 100 µM and more than 100 µM, respectively.
